The values below come from patent US6444235B1, “Canelo products and methods of making and using same” (bioActiva microtechne, priority 1999, dated 2002).

The test system of this test is p-388 (linfocitic leukemia). The experiment in a line: biological activity on P-388 leukemia cultures. It is filed as cell-based.

As to `O=C1c2c(O)cc(O)cc2O[C@H](c2ccc(O)c(O)c2)[C@H]1O` [taxifoline], the “anticarcinogenic activity on P-388 cultures (leufocytic leukemia)” value is on record as “has shown anticarcinogenic activity”.
